Test systems include CAKI-1 renal; DU-145 prostate; IGROV1 ovarian; NCI-H226 lung; NCI-H460 lung; OVCAR-8 ovarian; SF-268 CNS; SK-MEL-5 melanoma; U251 CNS; UACC-257 melanoma.
Holding throughout (test): inhibition of tumour cell growth, NCI panel, 48 h

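Exposure lasted 48 hours, with cells grown in 96-well plates and compounds tested at five concentrations. GI50 = concentration required for 50% inhibition of growth. TGI: total growth inhibition.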

For `CC(C)(O)CCc1cccc(C(=O)c2cnn(-c3ccc(F)cc3)c2N)c1`, the GI50 in the test with CAKI-1 renal is greater than 25 µM; with DU-145 prostate it was greater than 25 µM; in the test with IGROV1 ovarian, greater than 25 µM; in the test with NCI-H226 lung, greater than 19.7 µM; in the test on NCI-H460 lung, greater than 25 µM; in the test on OVCAR-8 ovarian, greater than 25 µM. In addition, the GI50 in the test with SF-268 CNS is greater than 25 µM; in the test on SK-MEL-5 melanoma, 13.5 µM; in the test with U251 CNS, greater than 25 µM; in the test with UACC-257 melanoma, greater than 25 µM. Moreover, the TGI in the test on CAKI-1 renal, with DU-145 prostate, with IGROV1 ovarian, in the test with NCI-H226 lung, in the test on NCI-H460 lung and in the test on OVCAR-8 ovarian was greater than 25 µM each time. Further, the TGI in the test with SF-268 CNS, with SK-MEL-5 melanoma, with U251 CNS and in the test on UACC-257 melanoma was greater than 25 µM each time.
For the compound `C[C@@H](CS[As](C)C)C(=O)N1CCC[C@H]1C(=O)O`, the GI50 with CAKI-1 renal was 0.0977 µM; in the test on DU-145 prostate, 0.19 µM; in the test on IGROV1 ovarian, 0.439 µM; with NCI-H226 lung, 0.364 µM; with NCI-H460 lung it was 1.4 µM; with OVCAR-8 ovarian, 0.299 µM. Further, the GI50 in the test with SF-268 CNS was 0.788 µM; in the test with SK-MEL-5 melanoma it was 0.152 µM; in the test on U251 CNS, 0.482 µM; in the test on UACC-257 melanoma, 1.45 µM. Moreover, the TGI in the test on CAKI-1 renal came out at 0.409 µM; with DU-145 prostate, 1.68 µM; in the test with IGROV1 ovarian, 3.21 µM; with NCI-H226 lung, 1.65 µM; with NCI-H460 lung it was 13.7 µM; with SF-268 CNS it was 6.45 µM. In addition, the TGI in the test on SK-MEL-5 melanoma was determined as 0.436 µM; with U251 CNS it was 2.43 µM; with UACC-257 melanoma, 7.8 µM.
On to `C[C@@]1(C(=O)O)CCC[C@]2(C)C1CC[C@]13C[C@@](O)(CO)[C@](O)(CC[C@]12O)C3` (stereo partly drawn), for which the GI50 with CAKI-1 renal, in the test on DU-145 prostate, in the test on IGROV1 ovarian, in the test with NCI-H226 lung, in the test with NCI-H460 lung and in the test with OVCAR-8 ovarian was greater than 100 µM in each case. The GI50 in the test with SF-268 CNS, in the test with SK-MEL-5 melanoma, in the test with U251 CNS and in the test on UACC-257 melanoma was greater than 100 µM throughout. Further, the TGI in the test with CAKI-1 renal, in the test with DU-145 prostate, in the test on IGROV1 ovarian, in the test on NCI-H226 lung, with NCI-H460 lung and in the test with OVCAR-8 ovarian was greater than 100 µM each time. Moreover, the TGI with SF-268 CNS, in the test on SK-MEL-5 melanoma, with U251 CNS and in the test with UACC-257 melanoma was greater than 100 µM in each case.
`CN(C)CCNC(=O)c1cccc2c1Oc1cccc([N+](=O)[O-])c1O2`: the TGI in the test on CAKI-1 renal came to 33.7 µM; in the test on DU-145 prostate, 31.5 µM; in the test with IGROV1 ovarian it was 34.1 µM; with NCI-H226 lung it was 27.9 µM; in the test on NCI-H460 lung, 35.4 µM; with OVCAR-8 ovarian it was 50 µM. For the same compound, the TGI in the test with SF-268 CNS was determined as 42.7 µM; in the test with SK-MEL-5 melanoma it was 33.2 µM; in the test with U251 CNS it was 42.8 µM; in the test with UACC-257 melanoma, 35.5 µM.
In the case of `C(=C\c1ccncc1)/c1ccncc1`, the GI50 in the test with CAKI-1 renal, with DU-145 prostate, in the test on IGROV1 ovarian, in the test with NCI-H226 lung, with NCI-H460 lung and with OVCAR-8 ovarian was greater than 100 µM each time. In addition, the GI50 in the test with SF-268 CNS, in the test on SK-MEL-5 melanoma, with U251 CNS and with UACC-257 melanoma was greater than 100 µM each time. In addition, the TGI with CAKI-1 renal, in the test on DU-145 prostate, in the test with IGROV1 ovarian, with NCI-H226 lung, in the test with NCI-H460 lung and in the test on OVCAR-8 ovarian was greater than 100 µM throughout. The TGI in the test with SF-268 CNS, in the test with SK-MEL-5 melanoma, in the test on U251 CNS and with UACC-257 melanoma was greater than 100 µM throughout.
With `O=C(N/N=C/c1cc(Cl)ccc1O)c1ccccc1Nc1ccnc(C(F)(F)F)c1`, the GI50 in the test on CAKI-1 renal was 0.405 µM; in the test with DU-145 prostate, 0.362 µM; with IGROV1 ovarian, 0.361 µM; in the test with NCI-H226 lung it was 0.769 µM; with NCI-H460 lung, 0.323 µM; in the test on OVCAR-8 ovarian it was 0.493 µM. The GI50 was 0.37 µM in the test with SF-268 CNS, 0.57 µM with SK-MEL-5 melanoma, 0.335 µM with U251 CNS and 1.43 µM in the test with UACC-257 melanoma. The TGI was 3.87 µM in the test with CAKI-1 renal; 18.8 µM in the test on DU-145 prostate; 13.3 µM in the test on IGROV1 ovarian; 7.71 µM in the test with NCI-H226 lung; 10.5 µM with NCI-H460 lung; 15.5 µM in the test with OVCAR-8 ovarian. In addition, the TGI in the test on SF-268 CNS was found to be 14.7 µM; with SK-MEL-5 melanoma, 5.33 µM; with U251 CNS, 9.41 µM; with UACC-257 melanoma, 7.54 µM.
For `O=C1c2ccn(CCCNC(CO)(CO)CO)c2C(=O)c2c1c(O)c1ccccc1c2O`, the GI50 in the test on CAKI-1 renal is 16.4 µM; in the test on DU-145 prostate, 11.5 µM; in the test on IGROV1 ovarian, 9.27 µM; in the test with NCI-H226 lung, 60.7 µM; in the test on NCI-H460 lung it was 10.2 µM; with OVCAR-8 ovarian, 15 µM. Besides, the GI50 in the test with SF-268 CNS is 24.2 µM; in the test with U251 CNS, 15.2 µM; in the test on UACC-257 melanoma, 43.9 µM. The TGI with CAKI-1 renal is 47.1 µM; in the test on DU-145 prostate, 25 µM; with IGROV1 ovarian, 56.8 µM; in the test on NCI-H226 lung it was greater than 100 µM; with NCI-H460 lung, 29.3 µM; in the test with OVCAR-8 ovarian it was 36.9 µM. Also, the TGI in the test on SF-268 CNS was greater than 100 µM; in the test on SK-MEL-5 melanoma it was 0.588 µM; with U251 CNS, 36.6 µM; in the test on UACC-257 melanoma, greater than 78.1 µM.
As for `O=C1C(Cl)=C(Cl)C(=O)N1c1ccc(F)cc1`, the TGI in the test with CAKI-1 renal is 21 µM; in the test on DU-145 prostate, greater than 100 µM; with IGROV1 ovarian, 43.6 µM; with NCI-H226 lung, greater than 77.7 µM; in the test on NCI-H460 lung it was greater than 100 µM; in the test on OVCAR-8 ovarian it was 45.1 µM. Moreover, the TGI is greater than 77.3 µM with SF-268 CNS, greater than 67.9 µM with SK-MEL-5 melanoma, 53.2 µM with U251 CNS and greater than 100 µM in the test with UACC-257 melanoma.

The values above are taken from PubChem BioAssay (NCI).
